From ChEMBL document CHEMBL5104103 (J Med Chem, 2022)
Calls of active or inactive are those of the source. The rule behind the calls is not given here.

Legend:
[1] = Toxicity in female Beagle dog assessed as reduction in activity up to 400 mg/kg/day qd for 12 weeks; type: organism-based, Canis lupus familiaris; conditions: in vivo, 2016 h
[2] = Drug concentration in plasma of collagen-induced arthritis Lewis rat model 30 mg/kg/day, po measured after 12 hrs post-collection of plasma; type: ADME, organism-based
[3] = molecular target: T1, Tyrosine-protein kinase ITK/TSK (Homo sapiens) (UniProt Q08881); assay: Displacement of competitive tracer from ITK (unknown origin) assessed as target occupancy at […] preincubated for 15 mins measured for 1 hr relative to control; conditions: dose 1.5 µM
T1 sequence (whole entry): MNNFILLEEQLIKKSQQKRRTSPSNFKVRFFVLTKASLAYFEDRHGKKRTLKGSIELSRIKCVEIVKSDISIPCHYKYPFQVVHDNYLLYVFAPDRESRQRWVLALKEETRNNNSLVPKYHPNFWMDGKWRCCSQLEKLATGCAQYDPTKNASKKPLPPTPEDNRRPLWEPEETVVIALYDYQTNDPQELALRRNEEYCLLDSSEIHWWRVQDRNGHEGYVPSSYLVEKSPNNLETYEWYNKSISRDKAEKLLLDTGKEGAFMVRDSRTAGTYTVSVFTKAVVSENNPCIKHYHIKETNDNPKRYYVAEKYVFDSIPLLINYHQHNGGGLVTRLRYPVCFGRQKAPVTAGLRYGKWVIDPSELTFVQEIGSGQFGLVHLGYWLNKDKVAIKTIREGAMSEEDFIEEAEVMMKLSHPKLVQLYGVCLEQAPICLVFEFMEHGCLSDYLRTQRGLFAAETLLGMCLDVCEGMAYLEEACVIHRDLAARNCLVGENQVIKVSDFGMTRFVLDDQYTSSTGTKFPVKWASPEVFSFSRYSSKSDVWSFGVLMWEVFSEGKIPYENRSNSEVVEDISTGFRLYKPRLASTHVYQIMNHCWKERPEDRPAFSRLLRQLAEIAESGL

Canis lupus familiaris = assay: Effect on canine pemphigus foliaceous dog model assessed as reduction in lesion at 8 to 21 mg/kg measured for 2 weeks; type: functional, organism-based; conditions: dose lower 8.0 mg/kg, dose upper […]
[4] = Toxicity in female Beagle dog assessed as weight loss up to 400 mg/kg/day qd for 12 weeks; type: organism-based, Canis lupus familiaris; conditions: in vivo, 2016 h
[5] = Drug concentration in plasma of collagen-induced arthritis Lewis rat model 30 mg/kg/day, po measured after 6 hrs post-collection of plasma; type: ADME, organism-based
[6] = Drug concentration in plasma of collagen-induced arthritis Lewis rat model 3 mg/kg/day, po measured after 6 hrs post-collection of plasma; type: ADME, organism-based
Rattus norvegicus = assay: Antiarthritic activity in collagen-induced arthritis Lewis rat model assessed as inhibition of ankle diameter administered orally daily for 10 days; type: functional, organism-based; conditions: dose 3-30 mg/kg/day, route po, time 10.0 day, DDE = dose-dependent effect
[7] = molecular target: T2, Tyrosine-protein kinase Tec (Homo sapiens) (UniProt P42680); assay: Displacement of competitive tracer from TEC (unknown origin) assessed as target occupancy at […] preincubated for 15 mins measured for 6 hrs relative to control; conditions: dose 1.5 µM
T2 sequence (whole entry): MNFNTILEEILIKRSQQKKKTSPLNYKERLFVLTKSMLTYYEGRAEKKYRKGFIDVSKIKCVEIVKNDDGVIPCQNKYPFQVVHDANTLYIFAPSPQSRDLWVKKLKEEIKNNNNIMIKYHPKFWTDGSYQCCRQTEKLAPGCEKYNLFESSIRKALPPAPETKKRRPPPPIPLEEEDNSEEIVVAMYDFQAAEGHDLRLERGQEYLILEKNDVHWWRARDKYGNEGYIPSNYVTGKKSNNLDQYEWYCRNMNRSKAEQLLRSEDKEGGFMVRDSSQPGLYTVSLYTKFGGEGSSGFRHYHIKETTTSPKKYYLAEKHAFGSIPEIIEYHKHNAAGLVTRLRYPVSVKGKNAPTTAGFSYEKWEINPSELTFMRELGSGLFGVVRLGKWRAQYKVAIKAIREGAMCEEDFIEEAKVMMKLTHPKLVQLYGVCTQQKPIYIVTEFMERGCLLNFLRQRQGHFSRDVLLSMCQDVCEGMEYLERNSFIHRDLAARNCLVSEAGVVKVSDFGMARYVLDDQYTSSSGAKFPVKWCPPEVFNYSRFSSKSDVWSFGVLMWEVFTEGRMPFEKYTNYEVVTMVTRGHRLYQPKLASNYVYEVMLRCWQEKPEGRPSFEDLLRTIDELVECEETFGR

[8] = molecular target: T2, Tyrosine-protein kinase Tec (Homo sapiens); assay: Displacement of competitive tracer from TEC (unknown origin) assessed as target occupancy at […] preincubated for 15 mins measured for 24 hrs relative to control; conditions: dose 1.5 µM
[9] = molecular target: T1, Tyrosine-protein kinase ITK/TSK (Homo sapiens); assay: Displacement of competitive tracer from ITK (unknown origin) assessed as target occupancy at […] preincubated for 15 mins measured for 24 hrs relative to control; conditions: dose 1.5 µM
[10] = Mutagenicity in Salmonella typhimurium by Ames test; type: toxicity; conditions: salmonella enterica subsp. enterica serovar typhimurium
[11] = molecular target: Tyrosine-protein kinase Blk (Homo sapiens, UniProt P51451); assay: Displacement of competitive tracer from BLK (unknown origin) assessed as target occupancy at […] preincubated for 15 mins measured for 6 hrs relative to control; conditions: dose 1.5 µM
[12] = molecular target: T3, Cytoplasmic tyrosine-protein kinase BMX (Homo sapiens) (UniProt P51813); assay: Displacement of competitive tracer from BMX (unknown origin) assessed as target occupancy at […] preincubated for 15 mins measured for 1 hr relative to control; conditions: dose 1.5 µM
T3 sequence (whole entry): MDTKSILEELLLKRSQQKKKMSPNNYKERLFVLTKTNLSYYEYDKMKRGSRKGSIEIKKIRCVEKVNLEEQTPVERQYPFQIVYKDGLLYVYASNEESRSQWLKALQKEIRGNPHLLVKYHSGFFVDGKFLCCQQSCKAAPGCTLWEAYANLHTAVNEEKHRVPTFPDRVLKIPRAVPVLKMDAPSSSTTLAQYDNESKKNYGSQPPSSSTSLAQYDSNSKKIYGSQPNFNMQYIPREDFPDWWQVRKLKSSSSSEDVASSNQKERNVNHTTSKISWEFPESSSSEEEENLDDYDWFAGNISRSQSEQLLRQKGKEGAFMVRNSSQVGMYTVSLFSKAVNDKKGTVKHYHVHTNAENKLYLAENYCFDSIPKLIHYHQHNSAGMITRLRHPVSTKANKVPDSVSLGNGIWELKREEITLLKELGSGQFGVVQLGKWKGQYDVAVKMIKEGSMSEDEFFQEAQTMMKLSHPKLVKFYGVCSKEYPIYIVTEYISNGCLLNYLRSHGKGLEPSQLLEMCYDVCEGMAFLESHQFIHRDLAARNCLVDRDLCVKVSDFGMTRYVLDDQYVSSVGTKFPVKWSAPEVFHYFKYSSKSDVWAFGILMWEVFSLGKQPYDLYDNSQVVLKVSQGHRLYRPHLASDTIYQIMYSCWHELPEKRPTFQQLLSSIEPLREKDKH

[13] = Drug concentration in plasma of collagen-induced arthritis Lewis rat model 10 mg/kg/day, po measured after 6 hrs post-collection of plasma; type: ADME, organism-based
[14] = Toxicity in male Beagle dog assessed as NOAEL; parameters: species or system Canis lupus familiaris; conditions: in vivo
[15] = molecular target: D(2) dopamine receptor (Homo sapiens) (UniProt P14416); assay: Displacement of [3H]methyl-spiperone from recombinant human dopamine receptor D2S at 10 uM incubated for 60 mins by radiometric scintillation assay relative to control
Sequence of D(2) dopamine receptor (Homo sapiens) (P14416 whole entry): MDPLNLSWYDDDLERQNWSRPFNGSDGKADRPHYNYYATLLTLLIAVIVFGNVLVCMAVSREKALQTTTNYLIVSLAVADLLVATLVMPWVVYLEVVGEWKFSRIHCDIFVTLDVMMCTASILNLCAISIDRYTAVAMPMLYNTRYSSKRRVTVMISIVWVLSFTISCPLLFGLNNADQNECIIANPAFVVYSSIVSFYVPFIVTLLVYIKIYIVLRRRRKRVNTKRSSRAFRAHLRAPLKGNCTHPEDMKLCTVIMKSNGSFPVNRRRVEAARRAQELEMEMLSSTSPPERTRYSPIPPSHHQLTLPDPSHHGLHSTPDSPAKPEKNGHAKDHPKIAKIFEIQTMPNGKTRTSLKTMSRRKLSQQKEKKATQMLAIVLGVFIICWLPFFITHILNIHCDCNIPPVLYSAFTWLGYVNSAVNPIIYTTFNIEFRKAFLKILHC

Sequence of Tyrosine-protein kinase Blk (P51451 2-505 limits assumed): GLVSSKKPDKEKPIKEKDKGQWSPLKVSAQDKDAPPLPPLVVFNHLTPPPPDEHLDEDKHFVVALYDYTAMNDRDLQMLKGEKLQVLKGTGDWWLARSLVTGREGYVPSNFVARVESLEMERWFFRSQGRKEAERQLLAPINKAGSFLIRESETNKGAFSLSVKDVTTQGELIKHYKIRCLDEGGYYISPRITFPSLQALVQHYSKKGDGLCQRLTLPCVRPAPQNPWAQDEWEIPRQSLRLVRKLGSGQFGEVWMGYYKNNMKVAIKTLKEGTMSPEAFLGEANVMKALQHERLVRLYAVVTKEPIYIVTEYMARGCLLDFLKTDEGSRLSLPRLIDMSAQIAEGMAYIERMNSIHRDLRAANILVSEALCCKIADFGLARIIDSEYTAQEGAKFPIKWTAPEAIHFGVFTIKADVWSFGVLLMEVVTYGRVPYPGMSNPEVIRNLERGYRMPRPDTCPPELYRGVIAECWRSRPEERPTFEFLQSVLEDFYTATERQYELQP

- concentration at 12 h [2]: 51.8 ng/mL
- Activity [3]: 82%
- concentration at 6 h [5]: 111 ng/mL
- concentration at 6 h [6]: 5.2 ng/mL
- Activity [7]: 80%
- Activity [8]: 76%
- Activity [9]: -7%
- Activity [11]: 44%
- Activity [12]: 90%
- concentration at 6 h [13]: 40.2 ng/mL
- inhibition [15]: > 50%
Compound: CC(C)(C)/C=C(\C#N)C(=O)N1CCC[C@@H](n2nc(-c3ccc(Oc4ccccc4)cc3F)c3c(N)ncnc32)C1 [ATUZABRUTINIB]
- Activity [1]: Toxic
- Activity (Canis lupus familiaris): Active
- Activity [4]: Toxic
- Activity (Rattus norvegicus): Dde
- Activity [10]: Non-Toxic
- NOAEL [14]: 400 mg/kg
